# Reference: patent US8663711B2, “Use of armillaridin for treating cancer” (Mackay Memorial Hospital, priority 2012, dated 2014)
# Where two headings read alike, the source gives them in different places.
# Tests used:
# CE81T/VGH cells [1] = assay: Cell cycle analysis by flow cytometry (propidium iodine); format: cell-based, human
# Procedure: FIG. 1 illustrates the effects of CH-205-O (i.e., armillaridin) on cell cycle distribution in CE81T/VGH cells in accordance with one embodiment of this invention, in which upper panels represented results obtained from CE81T/VGH cells treated with 0 (panel A), 10 μM (panel B) or 20 μM (panel C) of CH-205-O for 48 hours, and lower panels represented results obtained from CE81T/VGH cells treated with 0 (panel D), 10 μM (panel E) or 20 μM (panel F) of CH-205-O for 72 hours;
# Cultured cells with or without pre-treatment of the compound of this invention (i.e., armillaridin at 10 or 20 μM for 48 or 72 hours) were harvested from the cultured media and fixed by incubating with 75% iced cold ethanol at 4° C. for at least over night. The fixed cells were then warmed up to room temperature and treated with RNAase A for about 30 min. Precipitated cells were collected by centrifugation and re-suspended in a buffer solution containing propidium iodine (20 μg/ml) before being subject to flow cytometry analysis, where cell numbers at respective cell cycles were determined.
# [2] = system: CE81T/VGH cells xenografted esophageal tumor; assay: Xenograft esophageal cancer mice model; format: in vivo, Balb/c nude mice
# Procedure: For primary esophageal cancer model, total of 9 Balb/c nude mice at the age of 6 weeks were randomly divided into 3 groups, with 3 mice in each group. To start the experiment, each mice were injected with 5×10^5 CE81T/VGH cells subcutaneously to generate esophageal cancer on day 0, and then returned to culture for another 21 days to allow tumor progression. To evaluate the efficacy of the test compound, mice in the test group were given 3 doses of the test compound (CH-205-O at 80 mg/Kg/dose; or cisplatin at 2.5 mg/Kg/dose) every week, and total of […] were given during a period of 20 days after treatment started on day 22. Tumor sizes were measured using calipers. The body weight and the white blood cell counts of each mice were respectively recorded every day throughout the experiment. Tumor volume was calculated using the formula: volume=width^2×length×0.52.
# Effects of CH-205-O of this disclosure on mice grafted with CE81T/VGH cells were investigated by measuring the grafted tumor volume; body weight and the number of white blood cells of the mice in accordance with steps described in “Materials and Methods” section. Results are illustrated in FIG. 3.
# CE81T/VGH cells [3] = assay: Radiation treatment and clonogenic assay; format: cell-based, human; settings: pre-treatment 2.5 or 5 μM for 24 hours, then 0-4 Gy radiation, colonies counted after 14 days
# Procedure: Approximately 100 variable tumor cells were respectively plated onto 35-mm six-well culture dishes and were allowed to grow in DMEM medium contained 10% FCS mixed with 0, 1.25, 2.5 or 5 μM of the test compound of this disclosure (i.e., CH-205-O), and the test compound-treated cells were continued culture for 24 hours. The test compound was then washed out, and cells were subject to radiation treatment. Specifically, 6 MeV electron beam energy was delivered by a linear accelerator (Clinac 1800, Varian Associates, Inc., Palo Alto, Calif., USA) with a rate of 2.4 Gy/min at various dose including 0, 0.5, 1, 2, 3 and 4 Gy in a single fraction. Full electron equilibrium was ensured for each fraction by a parallel plate PR-60C ionization chamber (CAPINTEL, Inc., Ramsey, N.Y., USA).
# After radiation treatment, cells were returned to the culture for another 14 days; then were stained with 3% crystal violet and the numbers of colony (≧50 cells) were counted.
# To this purpose, cancerous cells were pre-treated with 1.25, 2.5 or 5 μM CH-205-O, before being treated with various doses of radiation in accordance with procedures described in “Materials and Methods” section. […]
# [4] = system: CE81T/VGH human esophageal squamous carcinoma cell line; assay: Trypan blue exclusion test, cell viability; format: cell-based; settings: read-out: IC50 (concentration required to reduce viability by 50%)
# Procedure: (§1) Cell lines used in the present disclosure include human esophageal squamous carcinoma cell lines CE81T/VGH and TE-2, and human esophageal adenocarcinoma cell lines BE-3 and SKGT-4. Each cell lines were cultured and maintained in Dulbecco's modified Eagle media (DMEM) supplemented with 10% fetal calf serum, 100 IU/ml penicillin, 100 μg/ml streptomycin, and 2 mM glutamine in 5% CO2 at 37° C.
# (§2) The dye exclusion test is used to determine the number of viable cells present in a cell suspension. […] In this test, the cells were first treated with a test compound (i.e., CH-205-O) for a certain period of time (e.g., 72 hours), then the cells were harvested and re-suspended in suitable buffer solution. The cell suspension was then mixed with trypan blue dye and then visually examined to determine whether cells had taken up or excluded the dye. A viable cell will have a clear cytoplasm, whereas a nonviable cell will have a blue cytoplasm. The concentration required to reduce viability by 50% (IC50) after 72 hours was extrapolated from the dose-response curves by different concentrations of the test compound using a second-order polynomial regression model and analyzing with SigmaPlot Software (Systat Software Inc., San Jose, Calif.).
# (§3) The human esophageal cancer cell lines including squamous cell carcinoma cell lines CE81T/VGH and TE-2, and adenocarcinoma cell lines BE-3 and SKGT-4 were cultured and maintained by procedures described above in the “Materials and Methods” Section. Anti-proliferative activity of armillaridin (hereafter “CH-205-O”) on each cell lines was assessed by cell viability and cell cycle analysis.
# [5] = system: BE-3 human esophageal adenocarcinoma cell line; assay: Trypan blue exclusion test, cell viability; format: cell-based; settings: BE-3, 72 hours, read-out: IC50 (concentration required to reduce viability by 50%)
# Procedure: as §1, §2, §3
# [6] = system: TE-2 human esophageal squamous carcinoma cell line; assay: Trypan blue exclusion test, cell viability; format: cell-based; settings: TE-2, 72 hours, read-out: IC50 (concentration required to reduce viability by 50%)
# Procedure: as §1, §2, §3
# [7] = system: SKGT-4 human esophageal adenocarcinoma cell line; assay: Trypan blue exclusion test, cell viability; format: cell-based; settings: SKGT-4, 72 hours, read-out: IC50 (concentration required to reduce viability by 50%)
# Procedure: as §1, §2, §3
# [8] = long-term exposure, 80 mg/Kg/dose, 12 doses
compound,measurement,setting,value
"COc1cc(O)c(C(=O)O[C@@H]2C[C@]3(C)C4CC(C)(C)CC4C=C(C=O)[C@]23O)c(C)c1Cl (stereo partly drawn) [CH-205-O, (2R,2aS,7bR)-3-formyl-2,2a,4a,5,6,7,7a,7b-octahydro-2a-hydroxy-6,6,7b-trimethyl-1H-cyclobuta[e]inden-2-yl 3-chloro-6-hydroxy-4-methoxy-2-methylbenzoate]",Cell cycle arrest at G2/M phase,"CE81T/VGH cells [1]; 10 or 20 μM for 48 hours, CE81T/VGH cells",capable of arresting the CE81T/VGH cells at G2/M phase in a dose-dependent manner
same,sub-G1 population of cells,"CE81T/VGH cells [1]; 10 or 20 μM, treatment for 72 hours, CE81T/VGH cells",induce an increase in the sub-G1 population of cells
same,Esophageal cancerous cells arrested at G2/M cycle,CE81T/VGH cells [1]; one specific example,at least 50%
same,Volume of the xenografted esophageal tumor,"[2]; 80 mg/Kg/dose, at least 12 doses, compared with control mice (vehicle only)",effective in reducing the volume of the xenografted esophageal tumor significantly
same,Body weight of the mice,[2]; [8],does not affect
same,Number of white blood cells of the mice,[2]; [8],does not affect
same,Reduction of the size of the cancer as compared with control,"[2]; long-term exposure, at least 12 doses within 20 days, 3 doses per week",at least 50%
same,Susceptibility of CE81T/VGH cells to radiation treatment (colony formation),CE81T/VGH cells [3],capable of enhancing the susceptibility of CE81T/VGH cells to radiation treatment
same,IC50,[4]; 72 hours,6.9 µM
same,IC50,"[4]; Homo sapiens, CE81T, 72 h",~7 µM
same,IC50,[5],5.4 µM
same,IC50,"[5]; Homo sapiens, 72 h",~5 µM
same,IC50,"[6]; Homo sapiens, 72 h",~3 µM
same,IC50,[6],3.4 µM
same,IC50,"[7]; Homo sapiens, SKGT4, 72 h",~5 µM
same,IC50,[7],5.5 µM
